Data as given in US8993638B2, “Brominated nitroalkanol compositions and their use as biocides” (Dow Global Technologies LLC, priority 2009, dated 2015).

Legend:
[1] = tested on: oil field isolated anaerobic SRB consortium; assay: Biocidal efficacy (MBC) against SRB, 40° C. for 24 hour; format: cell-based, sulfate reducing bacteria (SRB); settings: alone or in the combination, minimum tested biocide concentration for bacteria kill, 10^6 to 10^7 CFU/mL
Experimental: The synergy indexes reported in the following examples are calculated using the following equation: Synergy Index=Ca/CA+Cb/CB where Ca: Concentration of biocide A required to achieve a certain level or complete bacterial kill when used in combination; CA: Concentration of biocide A required to achieve a certain level or complete bacterial kill when used alone; Cb: Concentration of biocide B required to achieve a certain level or complete bacterial kill when used in combination; and CB: Concentration of biocide B required to achieve a certain level or complete bacterial kill when used alone. A synergy index (SI) of 1 indicates additivity, a synergy index of less than 1 indicates synergy, and a synergy index greater than 1 indicates antagonism. Various methods known to those skilled in the art can be used for evaluating biocidal efficacy. In the examples below, aliquots of the biocide-treated samples are removed at predetermined time points and the biocide concentration required to achieve a certain level or complete bacterial kill is determined by culture-based methods including serial dilution. […] After the mixtures are incubated at 40° C. for 24 hour, the biocidal efficacy is determined by minimum tested biocide concentration for bacteria kill in the aliquots (MBC). […]

oilfield SRB consortium = assay: Biocidal efficacy against SRB under high temperature and sulfide-rich conditions; format: cell-based, sulfate reducing bacteria (SRB); settings: alone or in the combination, 80° C. anaerobic, daily challenge with SRB and 10 ppm sulfide
Experimental: The synergy indexes reported in the following examples are calculated using the following equation: Synergy Index=Ca/CA+Cb/CB where Ca: Concentration of biocide A required to achieve a certain level or complete bacterial kill when used in combination; CA: Concentration of biocide A required to achieve a certain level or complete bacterial kill when used alone; Cb: Concentration of biocide B required to achieve a certain level or complete bacterial kill when used in combination; and CB: Concentration of biocide B required to achieve a certain level or complete bacterial kill when used alone. […] In the examples below, aliquots of the biocide-treated samples are removed at predetermined time points and the biocide concentration required to achieve a certain level or complete bacterial kill is determined by culture-based methods including serial dilution. […] After incubation for 2 h the biocidal efficacy is evaluated against the field SRB consortium at 40° C. for 2 h. After incubation for 7 days the biocidal efficacy are evaluated again for 24 h. The biocidal efficacy is determined by the lowest testing biocide dosage concentration required to achieve a 3 log 10 or greater bacterial reduction, of both 2 hours and 7 days heat and SRB-sulfide exposure. Synergy Index is then calculated. […]

O=[N+]([O-])C(CO)(CO)CO [0:1, tris(hydroxymethyl)nitromethane]
MBC (active ppm) TA ([1]; concentration of TA): 36.5 active ppm | Dosage required for 3log10 bacterial reduction of both 2 h and 7 day heat and SRB-sulfide exposure (active ppm) TA (oilfield SRB consortium; concentration of TA): 360.0 active ppm

O=[N+]([O-])C(Br)(CO)CO [1:0, 2-bromo-2-nitro-1,3-propanediol]
MBC (active ppm) BNPD ([1]; concentration of BNPD): 3.5 active ppm | Dosage required for 3log10 bacterial reduction of both 2 h and 7 day heat and SRB-sulfide exposure (active ppm) BNPD (oilfield SRB consortium; concentration of BNPD): 180.0 active ppm
